Assay results from paper PMC6203352, “Involvement of VNUT-exocytosis in transient receptor potential vanilloid 4-dependent ATP release from gastrointestinal epithelium” (PLoS ONE, 2018).
Each block holds one compound with its values, some of them ahead of it.

Experiments:
Type in all cases: cell-based
TRPV4 [1] = biological target: T1, TRPV4 (Homo sapiens, UniProt Q9HBA0); experiment: fura-2 Ca2+ imaging dose-response in CCD […] cells (endogenous TRPV4)
TRPV4 [2] = biological target: T1, TRPV4; experiment: fura-2 Ca2+ imaging dose-response in CCD […] cells (endogenous TRPV4), blocked by RN1734
TRPV4 [3] = biological target: T1, TRPV4; experiment: inhibition of GSK101 ([…])-induced Ca2+ response, fura-2 imaging in CCD […] cells (endogenous TRPV4)

T1 sequence (Q9HBA0 whole entry): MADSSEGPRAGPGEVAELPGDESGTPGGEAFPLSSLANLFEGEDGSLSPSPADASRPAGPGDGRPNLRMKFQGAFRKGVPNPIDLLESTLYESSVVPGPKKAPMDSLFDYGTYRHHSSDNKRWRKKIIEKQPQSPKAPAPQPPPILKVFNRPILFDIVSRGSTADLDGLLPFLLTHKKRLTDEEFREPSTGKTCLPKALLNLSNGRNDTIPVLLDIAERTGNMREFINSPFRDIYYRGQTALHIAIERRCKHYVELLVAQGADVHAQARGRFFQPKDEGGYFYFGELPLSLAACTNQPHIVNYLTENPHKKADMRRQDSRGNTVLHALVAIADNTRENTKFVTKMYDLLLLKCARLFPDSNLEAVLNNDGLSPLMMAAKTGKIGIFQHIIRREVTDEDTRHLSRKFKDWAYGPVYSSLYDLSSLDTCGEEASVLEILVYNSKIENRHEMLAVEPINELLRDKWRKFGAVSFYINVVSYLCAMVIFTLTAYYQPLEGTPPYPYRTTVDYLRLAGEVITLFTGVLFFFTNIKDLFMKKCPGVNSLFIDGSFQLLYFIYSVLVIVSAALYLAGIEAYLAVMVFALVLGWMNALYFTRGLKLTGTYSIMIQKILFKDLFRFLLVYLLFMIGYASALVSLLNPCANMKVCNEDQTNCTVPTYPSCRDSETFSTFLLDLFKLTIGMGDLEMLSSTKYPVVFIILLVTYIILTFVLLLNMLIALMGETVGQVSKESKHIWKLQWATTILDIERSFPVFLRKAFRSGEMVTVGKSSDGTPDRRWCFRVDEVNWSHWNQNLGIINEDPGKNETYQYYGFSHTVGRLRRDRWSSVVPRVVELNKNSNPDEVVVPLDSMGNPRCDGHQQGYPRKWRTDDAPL

Structure (SMILES): CC(C)C[C@H](NC(=O)c1cc2ccccc2s1)C(=O)N1CCN(C(=O)[C@H](CO)NS(=O)(=O)c2ccc(Cl)cc2Cl)CC1 [GSK101, N-((1S)-1-{[4-((2S)-2-{[(2,4-dichlorophenyl)sulfonyl]amino}-3-hydroxypropanoyl)-1-piperazinyl]carbonyl}-3-methylbutyl)-1-benzothiophene-2-carboxamide]
EC50 (TRPV4 [1]): 231 nM

EC50 (TRPV4 [2]): 111 nM
Structure (SMILES): CCCCC/C=C\C/C=C\CC1OC1C/C=C\CCCC(=O)OC (stereo not drawn) [8,9-EET methylestel]

IC50 (TRPV4 [3]): 0.703 nM
Structure (SMILES): CC(C)NCCN(C(C)C)S(=O)(=O)c1ccc(Cl)cc1Cl [RN1734]
